US12599582B2, “Pyrrole compounds” (ALIGOS THERAPEUTICS, INC., priority 2019, dated 2026)
pEC50: −log10 of the molar value.

test system: HBV; assay: HBV-DNA Antiviral Assay Using HepG2.2.15 Cells (extracellular HBV DNA by qPCR); format: cell-based, hepatitis B virus (HBV); settings: HBV DNA inhibition, HepG2.2.15 cells, extracellular HBV DNA by qPCR; read-out: EC50
Summary of the method: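 HepG2.2.15 cells were treated on day 1 with 8 concentrations (4-fold dilutions, duplicate; 0.5% DMSO), with compound-containing medium refreshed on day 4, at 37 °C. On day 7, supernatant HBV DNA was measured by qPCR against a plasmid standard curve, with inhibition normalised between DMSO and ETV controls. EC50/EC90 and CC50 (CellTiter-Glo ATP) came from variable-slope fits.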

Structure (SMILES) | pEC50
Cc1c(C(=O)C(=O)NC2(c3cnn(C4CC4)n3)CC(F)(F)C2)c(C)n(C)c1C(=O)Nc1ccc(F)c(C(F)(F)F)c1 [Compound 142, 4-[2-[[1-(2-cyclopropyltriazol-4-yl)-3,3-difluoro-cyclobutyl]amino]-2-oxo-acetyl]-N-[4-fluoro-3-(trifluoromethyl)phenyl]-1,3,5-trimethyl-pyrrole-2-carboxamide] | 8.00 to 9.00

same assay, conditions: Hepatitis B virus; HBV DNA inhibition, HepG2.2.15 cells, extracellular HBV DNA by qPCR; read-out: EC50

Structure (SMILES) | pEC50
Cc1c(C(=O)C(=O)NC(C)(C)c2nccs2)c(C)n(C)c1C(=O)Nc1ccc(F)c(C#N)c1 [Compound 85, N-(3-cyano-4-fluoro-phenyl)-1,3,5-trimethyl-4-[2-[(1-methyl-1-thiazol-2-yl-ethyl)amino]-2-oxo-acetyl]pyrrole-2-carboxamide] | 8.00 to 9.00
C#C[C@@](CO)(NC(=O)C(=O)c1c(C)c(C(=O)Nc2ccc(F)c(C#N)c2)n(C)c1C)C(F)(F)F [Compound 71b, N-(3-cyano-4-fluoro-phenyl)-1,3,5-trimethyl-4-[2-oxo-2-[[(1S)-1-(hydroxymethyl)-1-(trifluoromethyl)prop-2-ynyl]amino]acetyl]pyrrole-2-carboxamide] | 8.00 to 9.00
C#C[C@@H](CO)NC(=O)C(=O)c1c(C)c(C(=O)Nc2ccc(F)c(C#N)c2)n(C)c1C (single isomer, unassigned) [Compound 31a] | 8.00 to 9.00
C#CC1(NC(=O)C(=O)c2c(C)c(C(=O)Nc3ccc(F)c(C#N)c3)n(C)c2Cl)COC1 [Compound 40, 5-chloro-N-(3-cyano-4-fluoro-phenyl)-4-[2-[(3-ethynyloxetan-3-yl)amino]-2-oxo-acetyl]-1,3-dimethyl-pyrrole-2-carboxamide] | > 9.00
C#C[C@](CO)(NC(=O)C(=O)c1c(C)c(C(=O)Nc2ccc(F)c(C(F)(F)F)c2)n(C)c1C)C1CC1 [Compound 65a, N-[4-fluoro-3-(trifluoromethyl)phenyl]-1,3,5-trimethyl-4-[2-oxo-2-[[(1R)-1-cyclopropyl-1-(hydroxymethyl)prop-2-ynyl]amino]acetyl]pyrrole-2-carboxamide] | > 9.00
Cc1c(C(=O)C(=O)NC(C)(C)c2cn[nH]c2)c(C)n(C)c1C(=O)Nc1ccc(F)c(C(F)(F)F)c1 [Compound 97, N-[4-fluoro-3-(trifluoromethyl)phenyl]-1,3,5-trimethyl-4-[2-[[1-methyl-1-(1H-pyrazol-4-yl)ethyl]amino]-2-oxo-acetyl]pyrrole-2-carboxamide] | > 9.00
C=C[C@](CO)(NC(=O)C(=O)c1c(C)c(C(=O)Nc2ccc(F)c(C#N)c2)n(C)c1C)C(F)(F)F [Compound 74a, N-(3-cyano-4-fluoro-phenyl)-1,3,5-trimethyl-4-[2-oxo-2-[[(1R)-1-(hydroxymethyl)-1-(trifluoromethyl)allyl]amino]acetyl]pyrrole-2-carboxamide] | 8.00 to 9.00
C#C[C@@](CO)(NC(=O)C(=O)c1c(C)c(C(=O)Nc2ccc(F)c(C(F)(F)F)c2)n(C)c1C)C1CC1 [Compound 65b, N-[4-fluoro-3-(trifluoromethyl)phenyl]-1,3,5-trimethyl-4-[2-oxo-2-[[(1S)-1-cyclopropyl-1-(hydroxymethyl)prop-2-ynyl]amino]acetyl]pyrrole-2-carboxamide] | 8.00 to 9.00
C#C[C@@](CO)(NC(=O)C(=O)c1c(C)c(C(=O)Nc2ccc(F)c(C(F)(F)F)c2)n(C)c1C)C(F)(F)F [Compound 75b, N-[4-fluoro-3-(trifluoromethyl)phenyl]-1,3,5-trimethyl-4-[2-oxo-2-[[(1S)-1-(hydroxymethyl)-1-(trifluoromethyl)prop-2-ynyl]amino]acetyl]pyrrole-2-carboxamide] | 7.00 to 8.00
Cc1c(C(=O)C(=O)NC2(C#CCO)COC2)c(C)n(C)c1C(=O)Nc1ccc(F)c(C#N)c1 [Compound 76, N-(3-cyano-4-fluoro-phenyl)-4-[2-[[3-(3-hydroxyprop-1-ynyl)oxetan-3-yl]amino]-2-oxo-acetyl]-1,3,5-trimethyl-pyrrole-2-carboxamide] | 7.00 to 8.00
C#C[C@@H](C)NC(=O)C(=O)c1c(C)c(C(=O)Nc2ccc(F)c(C#N)c2)n(C)c1C [Compound 17a, N-(3-cyano-4-fluoro-phenyl)-1,3,5-trimethyl-4-[2-oxo-2-[[(1R)-1-methylprop-2-ynyl]amino]acetyl]pyrrole-2-carboxamide] | 8.00 to 9.00
C=C[C@@](C)(CO)NC(=O)C(=O)c1c(C)c(C(=O)Nc2ccc(F)c(C#N)c2)n(C)c1C [Compound 72b, N-(3-cyano-4-fluoro-phenyl)-1,3,5-trimethyl-4-[2-oxo-2-[[(1S)-1-(hydroxymethyl)-1-methyl-allyl]amino]acetyl]pyrrole-2-carboxamide] | 8.00 to 9.00
C#CCNC(=O)C(=O)c1cn(C)c(C(=O)Nc2ccc(F)c(C#N)c2)c1Cl [Compound 10, 3-chloro-N-(3-cyano-4-fluoro-phenyl)-1-methyl-4-[2-oxo-2-(prop-2-ynylamino)acetyl]pyrrole-2-carboxamide] | 7.00 to 8.00
C#CCNC(=O)C(=O)c1c(Cl)c(C(=O)Nc2ccc(F)c(C#N)c2)n(C)c1Br [Compound 16, 5-bromo-3-chloro-N-(3-cyano-4-fluoro-phenyl)-1-methyl-4-[2-oxo-2-(prop-2-ynylamino)acetyl]pyrrole-2-carboxamide] | 7.00 to 8.00
Cc1c(C(=O)C(=O)NC(C)(C)c2ccncc2)c(C)n(C)c1C(=O)Nc1ccc(F)c(C#N)c1 [Compound 93, N-(3-cyano-4-fluoro-phenyl)-1,3,5-trimethyl-4-[2-[[1-methyl-1-(4-pyridyl)ethyl]amino]-2-oxo-acetyl]pyrrole-2-carboxamide] | 8.00 to 9.00
C=CC1(NC(=O)C(=O)c2c(C)c(C(=O)Nc3ccc(F)c(C#N)c3)n(C)c2C)COC1 [Compound 33, N-(3-cyano-4-fluoro-phenyl)-1,3,5-trimethyl-4-[2-oxo-2-[(3-vinyloxetan-3-yl)amino]acetyl]pyrrole-2-carboxamide] | 8.00 to 9.00
C#CCNC(=O)C(=O)c1cn(C)c(C(=O)Nc2ccc(F)c(C#N)c2)c1F [Compound 6, N-(3-cyano-4-fluoro-phenyl)-3-fluoro-1-methyl-4-[2-oxo-2-(prop-2-ynylamino)acetyl]pyrrole-2-carboxamide] | 6.00 to 7.00
Cc1c(C(=O)C(=O)NC2(c3ccncc3)CC(F)(F)C2)c(C)n(C)c1C(=O)Nc1ccc(F)c(C(F)(F)F)c1 [Compound 150, 4-[2-[[3,3-difluoro-1-(4-pyridyl)cyclobutyl]amino]-2-oxo-acetyl]-N-[4-fluoro-3-(trifluoromethyl)phenyl]-1,3,5-trimethyl-pyrrole-2-carboxamide] | > 9.00
C#CC1(NC(=O)C(=O)c2c(C)c(C(=O)Nc3ccc(F)c(C#N)c3)n(C)c2C)CCOCC1 [Compound 107, N-(3-cyano-4-fluoro-phenyl)-4-[2-[(4-ethynyltetrahydropyran-4-yl)amino]-2-oxo-acetyl]-1,3,5-trimethyl-pyrrole-2-carboxamide] | 8.00 to 9.00
C=C[C@](C)(CO)NC(=O)C(=O)c1c(C)c(C(=O)Nc2ccc(F)c(C#N)c2)n(C)c1C [Compound 72a, N-(3-cyano-4-fluoro-phenyl)-1,3,5-trimethyl-4-[2-oxo-2-[[(1R)-1-(hydroxymethyl)-1-methyl-allyl]amino]acetyl]pyrrole-2-carboxamide] | 8.00 to 9.00
Cc1c(C(=O)C(=O)NC(C)(C)c2cscn2)c(C)n(C)c1C(=O)Nc1ccc(F)c(C#N)c1 [Compound 140, N-(3-cyano-4-fluoro-phenyl)-1,3,5-trimethyl-4-[2-[(1-methyl-1-thiazol-4-yl-ethyl)amino]-2-oxo-acetyl]pyrrole-2-carboxamide] | 8.00 to 9.00
C=C[C@H](NC(=O)C(=O)c1c(C)c(C(=O)Nc2ccc(F)c(C#N)c2)n(C)c1C)C(F)(F)F [Compound 36a, N-(3-cyano-4-fluoro-phenyl)-1,3,5-trimethyl-4-[2-oxo-2-[[(1S)-1-(trifluoromethyl)allyl]amino]acetyl]pyrrole-2-carboxamide] | > 9.00
C=CCNC(=O)C(=O)c1c(F)c(C(=O)Nc2ccc(F)c(C#N)c2)n(C)c1C [Compound 18, 4-[2-(allylamino)-2-oxo-acetyl]-N-(3-cyano-4-fluoro-phenyl)-3-fluoro-1,5-dimethyl-pyrrole-2-carboxamide] | 8.00 to 9.00
Cc1c(C(=O)C(=O)NC(C)(C)c2ccnn2C)c(C)n(C)c1C(=O)Nc1ccc(F)c(C#N)c1 [Compound 137, N-(3-cyano-4-fluoro-phenyl)-1,3,5-trimethyl-4-[2-[[1-methyl-1-(2-methylpyrazol-3-yl)ethyl]amino]-2-oxo-acetyl]pyrrole-2-carboxamide] | 8.00 to 9.00
C#CC(C)(C)NC(=O)C(=O)c1c(C)c(C(=O)Nc2ccc(F)c(C#N)c2)n(C)c1C [Compound 11, N-(3-cyano-4-fluoro-phenyl)-4-[2-(1,1-dimethylprop-2-ynylamino)-2-oxo-acetyl]-1,3,5-trimethyl-pyrrole-2-carboxamide] | > 9.00
C=CCNC(=O)C(=O)c1c(C)c(C(=O)Nc2ccc(F)c(C(F)(F)F)c2)n(C)c1C [Compound 2, 4-[2-(allylamino)-2-oxo-acetyl]-N-[4-fluoro-3-(trifluoromethyl)phenyl]-1,3,5-trimethyl-pyrrole-2-carboxamide] | 8.00 to 9.00
C#CC1(NC(=O)C(=O)c2c(F)c(C(=O)Nc3ccc(F)c(C#N)c3)n(C)c2C)CC(F)(F)C1 [Compound 56, N-(3-cyano-4-fluoro-phenyl)-4-[2-[(1-ethynyl-3,3-difluoro-cyclobutyl)amino]-2-oxo-acetyl]-3-fluoro-1,5-dimethyl-pyrrole-2-carboxamide] | > 9.00
C#C[C@](C)(NC(=O)C(=O)c1c(C)c(C(=O)Nc2ccc(F)c(C#N)c2)n(C)c1C)C(F)(F)F [Compound 79b, N-(3-cyano-4-fluoro-phenyl)-1,3,5-trimethyl-4-[2-oxo-2-[[(1S)-1-methyl-1-(trifluoromethyl)prop-2-ynyl]amino]acetyl]pyrrole-2-carboxamide] | 8.00 to 9.00
